Patent publication US5066580A, “Xanthene dyes that emit to the red of fluorescein” (priority 1990, dated 1991)
Where two headings read alike, the source gives them in different places.

Assays:
[1] = cited from earlier work
[2] = Fluorescence emission maximum and quantum yield; assay type: physicochemical; conditions: for red shift of emission maxima vs carboxy analogs: compared to carboxy analogs 1, 4 and 7; for effect of sulfo group on extinction coefficient and quantum yield: compared to carboxy analogs 1 and 7
Method: Second, quantum yields of compounds 1-9 and 14 were measured. Solutions (1×10^-6 M) of compounds 1-9 were prepared in carbonate/ bicarbonate buffer (pH 9.5). Fluorescence emission spectra were measured on a Perkin-Elmer MPF-2A fluorescence spectrophotometer in 3-mL disposable plastic cuvettes. The excitation wavelength was set 30 nm to the red of the maximum excitation wavelength and the emission spectra measured. The area under the emission spectrum was measured (F). The quantum yield (.PHI.) was determined using the following equation, F-kIo .PHI.εcb, where F is the fluorescence, k is a fluorimeter constant, Io is the light intensity at the exciting wavelength, ε is the extinction coefficient at the exciting wavelength, c is the concentration of the dye, and b is the pathlength of the cuvette. The value of k was determined for three different emission wavelength regions by using literature values of .PHI. and measuring the fluorescence of fluorescein (470-670 nm, .PHI.=0.92), eosin (500-700 nm, .PHI.=0.19) and allophycocyanin (Applied BioSystems, 600-800 nm, .PHI.=0.68). The value of Io was determined from a table that was generated by scanning the range of exciting wavelengths on the fluorescence spectrophotometer with the emission monochrometer open; a piece of white paper was placed in the sample holder to reflect the exciting light. The concentration of the dyes were 0.6-1.0 uM; this value in each case was below the concentration ([…]) required in order for the equation to be valid.
(§1) Finally, the spectral characteristics of compounds 1-9 was determined. The extinction coefficients and quantum yields or compounds 1-9 were determined at pH 9.5. The extinction coefficient and quantum yield of monoprotonated Vita Blue was also determined at pH 5.2. The extinction coefficient and the quantum yield of VBDB were determined at pH 7.2.

[3] = Absorbance maximum and extinction coefficient; assay type: physicochemical; conditions: for red shift of absorbance maxima vs carboxy analogs: compared to carboxy analogs 1, 4 and 7
Method: First, the extinction coefficient of compounds 1-9 and 14 was determined. Stock solutions (5×10^-3 M) of each dye were made by dissolving the dye in two equivalents of 0.1 N NaOH and making up the volume with carbonate/bicarbonate buffer (0.16, 0.34 M, pH 9.5). The solution was diluted ([…]) in additional buffer (final pH 9.5-10) and the absorbance spectrum measured. A stock solution (1.2×10^-3 M) of Vita Blue was prepared in DMSO, diluted into citrate buffer (0.1 M, pH 5 2) to give a final concentration of 1.6×10^-5 M and the absorbance spectrum measured. A stock solution (8.2×10^-3 M) of VBDB was prepared in DMSO and diluted into pyrophosphate buffer (0.1 M, pH 7.2) to give a final concentration of 8.1×10^-5 M and the absorbance spectrum measured on a Beckman model DU-6UV visible spectrophotometer.
as §1

[4] = 470-670 nm (fluorescein), 500-700 nm (eosin), 600-800 nm (allophycocyanin); cited from earlier work
[5] = Absorbance titration of Vita Blue; assay type: physicochemical
Method: Absorbance titration of Vita Blue then was measured. To a plastic cuvette (3 mL) was added the following solutions: citrate buffer (0.1 mL, 0.1 M, pH 4.2), pyrophosphate buffer (0.1 mL, 0.1 M, pH 6.2), EPPS buffer (0.1 mL, 0.1 M, pH 8.4), water (2.6 mL), HCl solution (5 uL, 6 N) and Vita Blue solution (8 or 40 uL, […]). The final concentration of Vita Blue was 3.4×10^-6 or 1.7×10^-5 M. The initial pH was approximately 3. Aliquots of NaOH solution were added (1-3 uL, 4 N) and the pH and the absorbance spectrum from 700 to 400 nm measured.

[6] = Fluorescence emission spectra of Vita Blue at varying pH; assay type: physicochemical
Method: Fluorescence emission spectra of Vita Blue also was determined. To each of five plastic cuvettes (3 mL) were added one of the following buffered solutions (0.1 M): citrate buffer (pH 4.21), pyrophosphate buffer at three pH values (6.22, 7.21, 9.05), and EPPS buffer (pH 8.37). Vita Blue solution (5 uL, 1.25×10^-3 M) was added, and the fluorescence emission spectra from 450 to 650 nm was measured. The excitation wavelength was 540 nm.

human white blood cells = assay: Staining of lysed whole blood, fluorescence by flow cytometry; assay type: cell-based; conditions: 1 uM dye
Method: After characterizing the various xanthene dyes prepared in accordance with this invention, one of the dyes (VBDB) was used to stain cells. The ability of VBDB to stain cells was compared with BCECF-AM, a membrane permeable esterase substrate (Molecular Probes) and fluorescein diacetate (FDA). […] After incubation, the tube was centrifuged. This procedure specifically lyses red blood cells leaving the white cells intact and viable. The supernatant was removed and the white blood cells which remained were washed twice and resuspended in blood cell diluent (1 mL, Diagnostic Technology, Inc.). The cell concentration and the percentage of dead cells were ascertained by counting the cells manually using a fluorescent microscope and a hemacytometer; acridine orange and ethidium bromide were used to stain live and dead cells respectively.
Four samples of approximately 1.7×10^6 cells then were placed in polystyrene tubes. To each tube was added one of the following solutions (1 mL): FDA (1 uM) BCECF-AM (1 uM), VBDB (0.8 uM), or VBDB (8.0 uM). The dye solutions were prepared by diluting a stock solution of each dye (1-8 mM in DMSO) into blood cell diluent. The tubes were kept at room temperature for 30 minutes. The samples were washed three times and resuspended in blood cell diluent (1 mL).
A bandpass 530/30 emission filter was used for both FDA and BCECF-AM, while a bandpass 660/20 emission filter was used for VBDB. Data from 10,000 events were acquired from each of these samples immediately after staining, one hour after staining, and two hours after staining.
Referring to FIG. 2, VBDB, BCECF-AM and FDA were compared as vital dyes by staining lysed whole blood and examining the fluorescence by flow cytometry. […] Four samples of cells were incubated with BCECF AM (1 uM), FDA (1 uM) and VBDB (0.8 uM, 8.0 uM). The cells were analyzed immediately after staining (t=0), after one hour (t=1) and after two hours (t=2).
The data in FIG. 2 also was used to quantitate the "live" cells and the "dead" cells. […] It was assumed the live cells were those cells which retained the dye (the right peak) and that dead cells were those cells whose membranes had become leaky (the left peak). By setting the gate to the immediate left of the main peak, the "dead" cells to the left of the gate were counted.

[7] = pH 5.2 (monoprotonated Vita Blue)

O=C(O)c1ccccc1-c1c2ccc(=O)cc-2oc2cc(O)ccc12 [Compound 1, fluorescein]
Quantum Yield ([1]; background): 0.93
difference of pKa2 and pKa3 ([1]; fluorescein and related compounds): 2.3 units
EM Max ([2]; pH 9.5): 516 nm
Quantum Yield ([2]; pH 9.5, dianionic form): 0.92
Abs Max ([3]; pH 9.5): 491 nm
ε (extinction coefficient) ([3]; pH 9.5): 80000 M⁻¹ cm⁻¹
quantum yield, literature value [4]: 0.92

O=c1ccc2c(-c3ccccc3S(=O)(=O)O)c3ccc(O)cc3oc-2c1 [Compound 2, Sulfonefluorescein]
red shift of emission maxima vs carboxy analogs [2]: 1-5 nm
effect of sulfo group on extinction coefficient and quantum yield [2]: little effect
EM Max ([2]; pH 9.5): 517 nm
Quantum Yield ([2]; pH 9.5, dianionic form): 0.92
red shift of absorbance maxima vs carboxy analogs [3]: 6-14 nm
Abs Max ([3]; pH 9.5): 497 nm
ε (extinction coefficient) ([3]; pH 9.5): 78000 M⁻¹ cm⁻¹

CN(C)c1ccc2c(-c3ccccc3C(=O)O)c3ccc(=O)cc-3oc2c1 [Compound 3, Rhodol]
EM Max ([2]; pH 9.5): 545 nm
Quantum Yield ([2]; pH 9.5, dianionic form): 0.20
Abs Max ([3]; pH 9.5): 522 nm
ε (extinction coefficient) ([3]; pH 9.5): 57000 M⁻¹ cm⁻¹

O=C(O)c1ccccc1-c1c2c3ccccc3c(=O)cc-2oc2cc(O)c3ccccc3c12 [Compound 4, 1,2,7,8 dibenzofluorescein]
EM Max ([2]; pH 9.5): 565 nm
Quantum Yield ([2]; pH 9.5, dianionic form): 0.24
Abs Max ([3]; pH 9.5): 534 nm
ε (extinction coefficient) ([3]; pH 9.5): 81000 M⁻¹ cm⁻¹

O=C(O)c1ccccc1-c1c2c3ccccc3c(=O)c(Br)c-2oc2c(Br)c(O)c3ccccc3c12 [Compound 5, 1,2,7,8-Dibenzo-4.5-dibromofluorescein]
extinction coefficient and quantum yield compared to parent dyes [2]: lower than the parent dyes
EM Max ([2]; pH 9.5): 581 nm
Quantum Yield ([2]; pH 9.5, dianionic form): 0.05
excitation maxima compared to parent dyes [3]: at longer wavelengths
Abs Max ([3]; pH 9.5): 549 nm
ε (extinction coefficient) ([3]; pH 9.5): 24000 M⁻¹ cm⁻¹

O=c1cc2oc3cc(O)c4ccccc4c3c(-c3ccccc3S(=O)(=O)O)c-2c2ccccc12 [Compound 6, 1,2,7,8-Dibenzosulfonefluorescein]
red shift of emission maxima vs carboxy analogs [2]: 1-5 nm
quantum yield vs carboxy analog ([2]; compared to compound 4): twice the quantum yield
EM Max ([2]; pH 9.5): 567 nm
Quantum Yield ([2]; pH 9.5, dianionic form): 0.48
red shift of absorbance maxima vs carboxy analogs [3]: 6-14 nm
Abs Max ([3]; pH 9.5): 541 nm
ε (extinction coefficient) ([3]; pH 9.5): 81000 M⁻¹ cm⁻¹

O=C(O)c1ccccc1-c1c2ccc3cc(O)ccc3c2oc2c1ccc1cc(=O)ccc12 [Compound 7, naphthofluorescein]
EM Max ([2]; pH 9.5): 660 nm
Quantum Yield ([2]; pH 9.5, dianionic form): 0.14
Abs Max ([3]; pH 9.5): 595 nm
ε (extinction coefficient) ([3]; pH 9.5): 44000 M⁻¹ cm⁻¹

O=C(O)c1ccccc1-c1c2ccc3c(Br)c(O)ccc3c2oc2c1ccc1c(Br)c(=O)ccc12 [Compound 8, 4,10 Dibromonaphthofluorescein]
EM Max ([2]; pH 9.5): 682 nm
Quantum Yield ([2]; pH 9.5, dianionic form): 0.05
Abs Max ([3]; pH 9.5): 605 nm
ε (extinction coefficient) ([3]; pH 9.5): 32000 M⁻¹ cm⁻¹

O=c1ccc2c(ccc3c(-c4ccccc4S(=O)(=O)O)c4ccc5cc(O)ccc5c4oc32)c1 [Compound 9]
absorbance peak maximum (apparent dimer) ([5]; 1.7×10^-5 M, pH 3.10, 4.06 and 6.45): 600 nm
isobestic point, absorbance titration ([5]; 3.4×10^-6 M): approximately 540 nm
extinction coefficient and quantum yield compared to parent dyes [2]: lower than the parent dyes
separation of emission maxima of monoanionic and dianionic forms [2]: 100 nm
red shift of emission maxima vs carboxy analogs [2]: 1-5 nm
effect of sulfo group on extinction coefficient and quantum yield [2]: little effect
EM Max [2, 7]: 570 nm
Quantum Yield ([2]; pH 5.2, monoanionic form): 0.04
EM Max ([2]; pH 9.5): 665 nm
Quantum Yield ([2]; pH 9.5, dianionic form): 0.15
isobestic point, emission spectra ([6]; excitation 540 nm, varying pH): 630 nm
dual fluorescence ([6]; mono- and diprotonated forms): showed dual fluorescence
excitation maxima compared to parent dyes [3]: at longer wavelengths
red shift of absorbance maxima vs carboxy analogs [3]: 6-14 nm
Abs Max [3, 7]: 524 nm
ε (extinction coefficient) [3, 7]: 13000 M⁻¹ cm⁻¹
Abs Max ([3]; pH 9.5): 609 nm
ε (extinction coefficient) ([3]; pH 9.5): 36000 M⁻¹ cm⁻¹

CC(=O)Oc1ccc2c(c1)Oc1cc(OC(C)=O)ccc1C21OC(=O)c2ccccc21 [FDA, fluorescein diacetate, reference compound]
retention of initial fluorescence by stained cells over time (human white blood cells): did not retain their initial fluorescence over time

O=C1OC2(c3ccccc31)c1cc(Br)c(O)c(Br)c1Oc1c2cc(Br)c(O)c1Br [eosin]
quantum yield, literature value [4]: 0.19

allophycocyanin
quantum yield, literature value [4]: 0.68
